Assay results: patent publication US4808711A, “Cephalosporin derivatives” (Sankei Pharmaceutical Co., Ltd., priority 1985, dated 1989)
In brackets after ≈: the same amount, converted by molar mass. Where a name gives a salt, the structure may show the parent alone.

Key:
Assay type in all cases: cell-based
E. Coli GN5482 = assay: MIC, E. Coli GN5482; settings: Escherichia coli
Experimental: (§1) The minimum inhibition concentrations (MIC) of the compounds obtained by the present invention were measured according to the standard method of Japanese Chemotherapy Association.

E. cloacae GN7471 = assay: MIC, E. cloacae GN7471; settings: Enterobacter cloacae
Experimental: as §1

C. freundii GN7391 = assay: MIC, C. freundii GN7391; settings: Citrobacter freundii
Experimental: as §1

S. marcescens GN10851 = assay: MIC, S. marcescens GN10851; settings: Serratia marcescens
Experimental: as §1

P. rettgeri GN4430 = assay: MIC, P. rettgeri GN4430; settings: Providencia rettgeri
Experimental: as §1

P. morganii GN5407 = assay: MIC, P. morganii GN5407; settings: Morganella morganii
Experimental: as §1

P. vulgaris GN7919 = assay: MIC, P. vulgaris GN7919; settings: Proteus vulgaris
Experimental: as §1

P. aeruginosa GN10 = assay: MIC, P. aeruginosa GN10; settings: Pseudomonas aeruginosa
Experimental: as §1

E. coli W3630/Rms212 = assay: MIC, E. coli W3630/Rms212; settings: Escherichia coli
Experimental: as §1

E. coli W3630/Rms213 = assay: MIC, E. coli W3630/Rms213; settings: Escherichia coli
Experimental: as §1

E. coli W3630/Rte16 = assay: MIC, E. coli W3630/Rte16; settings: Escherichia coli
Experimental: as §1

S. aureus TASAKI = assay: MIC, S. aureus TASAKI; settings: Staphylococcus aureus; S. aureus TASAKI; standard method of Japanese Chemotherapy Association; read-out: MIC
Experimental: as §1

S. aureus 209P JC-1 = assay: MIC, S. aureus 209P JC-1; settings: Staphylococcus aureus; S. aureus 209P JC-1; read-out: MIC
Experimental: as §1

S. aureus ATCC25923 = assay: MIC, S. aureus ATCC25923; settings: Staphylococcus aureus; S. aureus ATCC25923; read-out: MIC
Experimental: as §1

S. aureus Smith = assay: MIC, S. aureus Smith; settings: Staphylococcus aureus, read-out: MIC
Experimental: as §1

S. epidermidis ATCC14990 = assay: MIC, S. epidermidis ATCC14990; settings: Staphylococcus epidermidis, read-out: MIC
Experimental: as §1

S. faecalis IFO3826 = assay: MIC, S. faecalis IFO3826; settings: Enterococcus faecalis, read-out: MIC
Experimental: as §1

B. subtilis ATCC6633 = assay: MIC, B. subtilis ATCC6633; settings: Bacillus subtilis; B. subtilis ATCC6633; read-out: MIC
Experimental: as §1

S. anatum 677-69 = assay: MIC, S. anatum 677-69; settings: Salmonella enterica, 67769, read-out: MIC
Experimental: as §1

S. newport 563 = assay: MIC, S. newport 563; settings: Salmonella enterica, read-out: MIC
Experimental: as §1

S. paratyphi A 144-12-93 = assay: MIC, S. paratyphi A 144-12-93; settings: Salmonella enterica, PARATYPHI
Experimental: as §1

S. paratyphi B = assay: MIC, S. paratyphi B; settings: Salmonella enterica, PARATYPHI
Experimental: as §1

S. paratyphi C 33-76 = assay: MIC, S. paratyphi C 33-76; settings: Salmonella enterica, PARATYPHI
Experimental: as §1

S. typhi 1099-77 = assay: MIC, S. typhi 1099-77; settings: Salmonella enterica, TYPHI
Experimental: as §1

S. typhimurium ATCC13311 = assay: MIC, S. typhimurium ATCC13311; settings: Salmonella enterica, read-out: MIC
Experimental: as §1

S. typhimurium IFO 12529 = assay: MIC, S. typhimurium IFO 12529; settings: Salmonella enterica, read-out: MIC
Experimental: as §1

S. boyadii CDC 2064-59 = assay: MIC, S. boyadii CDC 2064-59
Experimental: as §1

S. dysenteriae 4379-60 = assay: MIC, S. dysenteriae 4379-60; settings: Shigella dysenteriae, 437960
Experimental: as §1

[1] = system: S. flexneri 2a CDC 4807-62; assay: MIC, S. flexneri 2a CDC 4807-62; settings: Shigella flexneri, read-out: MIC
Experimental: as §1

S. flexneri Y NCTC 9730 = assay: MIC, S. flexneri Y NCTC 9730; settings: Shigella flexneri, NCTC9730, read-out: MIC
Experimental: as §1

S. sonnei SH72-415 = assay: MIC, S. sonnei SH72-415; settings: Shigella sonnei, SH72415, read-out: MIC
Experimental: as §1

E. coli ATCC25922 = assay: MIC, E. coli ATCC25922; settings: Escherichia coli, read-out: MIC
Experimental: as §1

E. coli NIHJ JC-2 = assay: MIC, E. coli NIHJ JC-2; settings: Escherichia coli, NIHJJC2, read-out: MIC
Experimental: as §1

C. freundii IFO12681 = assay: MIC, C. freundii IFO12681; settings: Citrobacter freundii, read-out: MIC
Experimental: as §1

S. marcescens IFO12648 = assay: MIC, S. marcescens IFO12648; settings: Serratia marcescens, read-out: MIC
Experimental: as §1

E. cloacae ATCC13047 = assay: MIC, E. cloacae ATCC13047; settings: Enterobacter cloacae
Experimental: as §1

K. pneumoniae ATCC27736 = assay: MIC, K. pneumoniae ATCC27736; settings: Klebsiella pneumoniae, read-out: MIC
Experimental: as §1

P. mirabilis IFO3849 = assay: MIC, P. mirabilis IFO3849; settings: Proteus mirabilis, read-out: MIC
Experimental: as §1

P. rettgeri ATCC14505 = assay: MIC, P. rettgeri ATCC14505; settings: Providencia rettgeri, read-out: MIC
Experimental: as §1

P. vulgaris ATCC6380 = assay: MIC, P. vulgaris ATCC6380; settings: Proteus vulgaris, read-out: MIC
Experimental: as §1

P. vulgaris ATCC6398 = assay: MIC, P. vulgaris ATCC6398; settings: Proteus vulgaris, read-out: MIC
Experimental: as §1

P. aeruginosa ATCC9721 = assay: MIC, P. aeruginosa ATCC9721; settings: Pseudomonas aeruginosa; P. aeruginosa ATCC9721; read-out: MIC
Experimental: as §1

P. cepacia ATCC25416 = assay: MIC, P. cepacia ATCC25416; settings: Burkholderia cepacia, read-out: MIC
Experimental: as §1

P. maltophilia ATCC13637 = assay: MIC, P. maltophilia ATCC13637; settings: Stenotrophomonas maltophilia
Experimental: as §1

P. putida ATCC12633 = assay: MIC, P. putida ATCC12633; settings: Pseudomonas putida
Experimental: as §1

P. fluorescens ATCC13525 = assay: MIC, P. fluorescens ATCC13525; settings: Pseudomonas fluorescens, read-out: MIC
Experimental: as §1

CC(=O)Oc1cc(OC(C)=O)cc(C(=O)NNC(=O)NC(C(=O)NC2C(=O)N3C(C(=O)O)=C(CSc4nncs4)CSC23)c2csc(N)n2)c1 (stereo not shown) [Example 118] was tested, and the MIC (E. Coli GN5482) was 1.56 µg/mL (≈ 2.04 µM), the MIC (E. cloacae GN7471) was 6.25 µg/mL (≈ 8.18 µM) and the MIC (C. freundii GN7391) was > 100 µg/mL. It also gave an MIC (S. marcescens GN10851) of 100 µg/mL (≈ 131 µM), an MIC (P. rettgeri GN4430) of 0.39 µg/mL (≈ 0.511 µM) and an MIC (P. morganii GN5407) of 0.78 µg/mL (≈ 1.02 µM). For the same compound, the MIC (P. vulgaris GN7919) was 100 µg/mL (≈ 131 µM), the MIC (P. aeruginosa GN10) was 6.25 µg/mL (≈ 8.18 µM) and the MIC (E. coli W3630/Rms212) was 0.39 µg/mL (≈ 0.511 µM). It also gave an MIC (E. coli W3630/Rms213) of 0.2 µg/mL (≈ 0.262 µM) and an MIC (E. coli W3630/Rte16) of 0.39 µg/mL (≈ 0.511 µM).
With Cn1nnnc1SCC1=C(C(=O)O)N2C(=O)C(NC(=O)C(=NOCC(=O)NN=Cc3ccc(O)c(O)c3)c3csc(N)n3)C2SC1 (stereo not shown) [Example 2, 7-{2-[2-amino-1,3-thiazol-4-yl]-2-[3-(3,4-dihydroxybenzylidene)carbazoyl]methoxyiminoacetamido}-3-[(1-methyl-1,2,3,4-tetrazol-5-yl)thiomethyl]-3-cephem-4-carboxylic acid.hydrochloride] the MIC (S. aureus TASAKI) was 1.56 µg/mL, the MIC (S. aureus 209P JC-1) was 0.78 µg/mL and the MIC (S. aureus ATCC25923) was 0.78 µg/mL. For the same compound, the MIC (S. aureus Smith) was 3.13 µg/mL, the MIC (S. epidermidis ATCC14990) was 0.78 µg/mL and the MIC (S. faecalis IFO3826) was > 100 µg/mL. It also gave an MIC (B. subtilis ATCC6633) of 0.39 µg/mL, an MIC (S. anatum 677-69) of 0.05 µg/mL and an MIC (S. newport 563) of 0.05 µg/mL. It also gave an MIC (S. paratyphi A 144-12-93) of 0.05 µg/mL, an MIC (S. paratyphi B) of 0.025 µg/mL and an MIC (S. paratyphi C 33-76) of 0.012 µg/mL. The MIC (S. typhi 1099-77) was ≤ 0.006 µg/mL, the MIC (S. typhimurium ATCC13311) was 0.05 µg/mL and the MIC (S. typhimurium IFO 12529) was 0.39 µg/mL. The MIC (S. boyadii CDC 2064-59) was 0.78 µg/mL, the MIC (S. dysenteriae 4379-60) was 0.025 µg/mL and the MIC [1] was 0.1 µg/mL. The MIC (S. flexneri Y NCTC 9730) was 0.78 µg/mL, the MIC (S. sonnei SH72-415) was 0.05 µg/mL and the MIC (E. coli ATCC25922) was 0.2 µg/mL. For the same compound, the MIC (E. coli NIHJ JC-2) was 0.39 µg/mL, the MIC (C. freundii IFO12681) was 0.39 µg/mL and the MIC (S. marcescens IFO12648) was 0.39 µg/mL. The MIC (E. cloacae ATCC13047) was 3.13 µg/mL, the MIC (K. pneumoniae ATCC27736) was 0.025 µg/mL and the MIC (P. mirabilis IFO3849) was 0.2 µg/mL. It also gave an MIC (P. rettgeri ATCC14505) of 0.39 µg/mL, an MIC (P. vulgaris ATCC6380) of 0.2 µg/mL and an MIC (P. vulgaris ATCC6398) of 0.05 µg/mL. For the same compound, the MIC (P. aeruginosa ATCC9721) was 0.2 µg/mL, the MIC (P. cepacia ATCC25416) was 0.78 µg/mL and the MIC (P. maltophilia ATCC13637) was 1.56 µg/mL. The MIC (P. putida ATCC12633) was 1.56 µg/mL and the MIC (P. fluorescens ATCC13525) was 12.5 µg/mL.
